Assay results published in PMC4290037, “Purification and Characterization of Glucose-6-Phosphate Dehydrogenase from Camel Liver” (Enzyme Research, 2014).

Biological target: T1, Glucose-6-phosphate dehydrogenase (camel liver G6PD) (Camelus dromedarius, UniProt G1EHI3)
T1 construct: native enzyme purified from camel liver (subunit 64 kDa, native 194 kDa)
Assay: enzyme inhibition kinetics of purified enzyme (Lineweaver-Burk, Hill plot, slope replot)
Format: biochemical

T1 sequence (G1EHI3 entry or part of it): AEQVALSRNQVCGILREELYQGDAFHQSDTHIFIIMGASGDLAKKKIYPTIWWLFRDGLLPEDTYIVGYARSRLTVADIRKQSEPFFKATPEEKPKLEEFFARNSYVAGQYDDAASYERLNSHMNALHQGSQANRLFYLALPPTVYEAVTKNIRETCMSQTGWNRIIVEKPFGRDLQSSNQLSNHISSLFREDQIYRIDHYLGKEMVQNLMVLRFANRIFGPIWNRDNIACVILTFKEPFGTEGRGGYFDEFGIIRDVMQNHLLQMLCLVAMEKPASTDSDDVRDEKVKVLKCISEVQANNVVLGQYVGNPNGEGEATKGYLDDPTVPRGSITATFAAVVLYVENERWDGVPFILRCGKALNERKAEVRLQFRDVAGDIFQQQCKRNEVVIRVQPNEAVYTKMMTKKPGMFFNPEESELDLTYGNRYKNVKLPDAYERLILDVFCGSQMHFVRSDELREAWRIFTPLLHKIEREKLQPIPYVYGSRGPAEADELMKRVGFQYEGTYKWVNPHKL

Structure (SMILES): NC(=O)C1=CN([C@@H]2O[C@H](COP(=O)(O)OP(=O)(O)OC[C@H]3O[C@@H](n4cnc5c(N)ncnc54)[C@H](OP(=O)(O)O)[C@@H]3O)[C@@H](O)[C@H]2O)C=CC1 [NADPH]
- Ki: 35 µM
